One experiment concerns L02 cells. The experiment in a line: Cytotoxicity on L02 cells (MTT). The format is cell-based, human. Particulars: after treatment; for inhibition at 100 µM: Homo sapiens, L02, 100μM, read-out: IR (inhibitory rate) L02; for IR (inhibitory rate) L02: 100μM. As for the experimental part: (§1) Human normal hepatic L02 cells, human embryonic kidney cell line 293 cells (HEK293) and Rattus myoblast cell line H9C2 cells were respectively seeded in 96-well plates at a density of 4 × 10^3 cells per well and cultured in the 1640 or DMEM medium, with the supplement of 10% fetal bovine serum, penicillin (100 unit/ml), streptomycin (100 μg/ml) in a humidified incubator with 5% CO2 for 24 h. […] The cytotoxicities of the compounds were evaluated by MTT method.

For a further experiment, the system named is HEK293 cells. The experiment in a line: Cytotoxicity on HEK293 cells (MTT). Type of experiment: cell-based, human. Particulars: after treatment; for inhibition at 100 µM: Homo sapiens, HEK293, 100μM, read-out: IR (inhibitory rate) HEK293; for IR (inhibitory rate) HEK293: 100μM. The protocol:
as §1

Experiment [1] has as its system corticosterone-injured PC12 cells. The experiment in a line: Protective effects on corticosterone-injured PC12 cells (MTT). Type of experiment: cell-based, rat. More on the design: key to PR (protection rate), Table S1: compounds did not shown protection effects on corticosterone-injured PC12 cells. Particulars: 24 h after treatment; for PR (protection rate), Table S1: 1.25µM; for PR (protection rate): 1.25 μM, 200 μM corticosterone. The protocol: PC12 cells were purchased from American Type Culture Collection and were maintained in DMEM medium supplemented with penicillin (100 unit/ml), streptomycin (100 μg/ml), 5% fetal bovine serum (FBS), and 10% horse serum at 37 °C in humidified atmosphere with 5% CO2. The detailed procedures were performed referring to the reported literatures. Briefly, PC12 cells of logarithmic growth phase were collected, re-suspended and then seeded at a density of 1 × 10^5 cells per well in 96-well plates and cultured in the DMEM medium with 5% horse serum, 10% FBSfor 24 h.
After incubation with compounds, 20 μl of 5 mg/ml MTT solution was added to each well and cultured at 37 °C for 2 h–4 h. Then, the culture medium was removed, and 150 μl dimethyl sulfoxide(DMSO) was added to each well for 15 min at room temperature. The absorbance of each well was measured at 570 nm using a microplate reader. The protective rates (PR) were calculated according to equation (1).

Counter-ions that a name gives are not always drawn.

As for `COc1ccc2c(c1)C(CCNC(=O)Nc1ccc(Cl)cc1[N+](=O)[O-])=NCC2` [6b-16, 1-(4-Chloro-2-nitrophenyl)-3-(2-(7-methoxy-3,4-dihydroisoquinolin-1-yl)ethyl)urea oxalate], the inhibition at 100 µM with L02 cells was 53.2%; with HEK293 cells, 52%.
Consider `COc1ccc2c(c1)C(CCNC(=O)c1cc(C(F)(F)F)ccc1Br)=NCC2.O=C(O)C(=O)O` [6a-28, 2-Bromo-N-(2-(7-methoxy-3,4-dihydroisoquinolin-1-yl)ethyl)-5-(trifluoromethyl)benzamide oxalate], for which the “PR (protection rate), Table S1” value in experiment [1] was found to be 2.4%. For the same molecule, the inhibition at 100 µM in the experiment on L02 cells stood at 43.7%; in the experiment with HEK293 cells it was 58.5%.
The like results for `COc1ccc2c(c1)C(CCNC(=O)c1ccccc1)=NCC2.O=C(O)C(=O)O` [6a-10, N-(2-(7-Methoxy-3,4-dihydroisoquinolin-1-yl)ethyl)benzamide oxalate] were, in that order, “-”, 22.5% and 27.6%.
For the molecule `COc1ccc2c(c1)C(CCNC(=O)c1ccc(F)cc1)=NCC2` [6a-12, 4-Fluoro-N-(2-(7-methoxy-3,4-dihydroisoquinolin-1-yl)ethyl) benzamide oxalate], the “PR (protection rate), Table S1” value in experiment [1] was found to be 0.7%. The inhibition at 100 µM was determined as 19.1% with L02 cells and 43.8% in the experiment on HEK293 cells.
For `COc1ccc2c(c1)C(CCNC(=O)c1ccc3ccccc3n1)=NCC2.O=C(O)C(=O)O` [6a-26, N-(2-(7-Methoxy-3,4-dihydroisoquinolin-1-yl)ethyl)quinoline-2-carboxamide oxalate] the same measures were “-”, 42.7% and 48.6%.
For “2-(3-(2-(7-Methoxy-3,4-dihydroisoquinolin-1-yl)ethyl)ureido)thiazole-5-carboxylate oxalate [6b-8]”, the “PR (protection rate), Table S1” value in experiment [1] is reported as “-”. Besides, the “IR (inhibitory rate) L02” value with L02 cells came out at 50.0%. The “IR (inhibitory rate) HEK293” value in the experiment with HEK293 cells is reported as 49.2%.
Consider `COc1ccc2c(c1)C(CCNC(=O)Nc1ccc(Cl)c(C(F)(F)F)c1)=NCC2` [6b-9, 1-(4-Chloro-3-(trifluoromethyl)phenyl)-3-(2-(7-methoxy-3,4-dihydroisoquinolin-1-yl)ethyl)urea oxalate], for which the inhibition at 100 µM with L02 cells turned out to be 25.7%; with HEK293 cells, 31.6%.
Turning to `COc1ccc2c(c1)C(CCNC(=O)c1cccnc1)=NCC2.O=C(O)C(=O)O` [6a-23, N-(2-(7-Methoxy-3,4-dihydroisoquinolin-1-yl)ethyl)nicotinamide oxalate], the “PR (protection rate), Table S1” value in experiment [1] is recorded as “-”. For the same molecule, the inhibition at 100 µM in the experiment on L02 cells came to 66.9%; in the experiment with HEK293 cells, 57.8%.
On to “1-(3,5-Dimethylpyridin-4-yl)-3-(2-(7-methoxy-3,4-dihydroisoquinolin-1-yl)ethyl)urea oxalate [6b-11]”, for which the “PR (protection rate), Table S1” value in experiment [1] was “-”. Moreover, in the experiment with L02 cells, the “IR (inhibitory rate) L02” value was 27.3%. Also, the “IR (inhibitory rate) HEK293” value in the experiment on HEK293 cells came out at 28.1%.
Take `COc1ccc2c(c1)C(CCNC(=O)Nc1ccc(Br)cc1)=NCC2` [6b-21, 1-(4-Bromophenyl)-3-(2-(7-methoxy-3,4-dihydroisoquinolin-1-yl)ethyl)ureaoxalate]: the “PR (protection rate), Table S1” value in experiment [1] is given as “-”. In addition, the inhibition at 100 µM with L02 cells was determined as 38.3%; in the experiment with HEK293 cells it was 41.2%.
As for “2,6-Difluoro-N-(2-(7-methoxy-3,4-dihydroisoquinolin-1-yl)ethyl)benzamide oxalate [6a-34]”, the “PR (protection rate), Table S1” value in experiment [1] was “-”. Also, the “IR (inhibitory rate) L02” value in the experiment with L02 cells came out at 44.0%. In the experiment with HEK293 cells, the “IR (inhibitory rate) HEK293” value worked out at 47.1%.
Regarding `COc1ccc2c(c1)C(CCNC(=O)Nc1ccc(Cl)c(Cl)c1)=NCC2.O=C(O)C(=O)O` [6b-18, 1-(3,4-Dichlorophenyl)-3-(2-(7-methoxy-3,4-dihydroisoquinolin-1-yl)ethyl)urea oxalate], in experiment [1], the “PR (protection rate), Table S1” value is on record as 12.8% and the “PR (protection rate)” value is “above 10%”. The inhibition at 100 µM in the experiment on L02 cells came out at 57.5%. The inhibition at 100 µM in the experiment with HEK293 cells came to 56.1%.
`COc1ccc2c(c1)C(CCNC(=O)NC(C)C)=NCC2` [6b-10, 1-Isopropyl-3-(2-(7-methoxy-3,4-dihydroisoquinolin-1-yl)ethyl)urea oxalate]: the inhibition at 100 µM was found to be 31.9% in the experiment with L02 cells and 34.7% in the experiment with HEK293 cells.
On to `COc1ccc2c(c1)C(CCNC(=O)NC1CC1)=NCC2.O=C(O)C(=O)O` [6b-1, 1-Cyclopropyl-3-(2-(7-methoxy-3,4-dihydroisoquinolin-1-yl)ethyl)urea oxalate], for which the “PR (protection rate), Table S1” value in experiment [1] is listed as “-”. Moreover, the results for the inhibition at 100 µM in the experiment with L02 cells and in the experiment with HEK293 cells were 27.2% and 19.5%, respectively.
Take “N-(2-(7-Methoxy-3,4-dihydroisoquinolin-1-yl)ethyl)-4-methylbenzamide oxalate [6a-32]”: the “PR (protection rate), Table S1” value in experiment [1] was “-”. Also, the “IR (inhibitory rate) L02” value in the experiment with L02 cells worked out at 43.2%. In the experiment with HEK293 cells, the “IR (inhibitory rate) HEK293” value is on record as 54.8%.
`COc1ccc2c(c1)C(CCNC(=O)c1ccc(C(C)(C)C)cc1)=NCC2.O=C(O)C(=O)O` [6a-18, 4-(tert-Butyl)-N-(2-(7-methoxy-3,4-dihydroisoquinolin-1-yl)ethyl)benzamide oxalate]: in experiment [1], the “PR (protection rate), Table S1” value is recorded as “-”. Also, the inhibition at 100 µM with L02 cells was determined as 63.2%; in the experiment on HEK293 cells, 53.3%.
The like results for `COc1ccc2c(c1)C(CCNC(=O)c1ccc(Br)nc1)=NCC2.O=C(O)C(=O)O` [6a-31, 6-Bromo-N-(2-(7-methoxy-3,4-dihydroisoquinolin-1-yl)ethyl)nicotinamide oxalate] were, in that order, 0.2%, 46.1% and 56.1%.
Regarding `COc1ccc2c(c1)C(CCNC(=O)Nc1ccccc1C(F)(F)F)=NCC2.O=C(O)C(=O)O` [6b-4, 1-(2-(7-Methoxy-3,4-dihydroisoquinolin-1-yl)ethyl)-3-(2-(trifluoromethyl)phenyl)urea oxalate], the “PR (protection rate), Table S1” value in experiment [1] worked out at 11.9%. In experiment [1], the “PR (protection rate)” value is on record as “above 10%”. Further, the inhibition at 100 µM in the experiment on L02 cells is 57.7%; with HEK293 cells, 29.2%.
On to `COc1ccc2c(c1)C(CCNC(=O)Nc1cccc([N+](=O)[O-])c1)=NCC2.O=C(O)C(=O)O` [6b-15, 1-(2-(7-Methoxy-3,4-dihydroisoquinolin-1-yl)ethyl)-3-(3-nitrophenyl)urea oxalate], for which the “PR (protection rate), Table S1” value in experiment [1] is on record as “-”. Besides, the figures for the inhibition at 100 µM with L02 cells and with HEK293 cells were 48.9% and 47.5%, respectively.
For `COc1ccc2c(c1)C(CCNC(=O)Cc1cc3ccccc3[nH]1)=NCC2.O=C(O)C(=O)O` [6a-17, 2-(1H-Indol-2-yl)-N-(2-(7-methoxy-3,4-dihydroisoquinolin-1-yl)ethyl)acetamide oxalate] the same measures were “-”, 42.2% and 55.8%.
In the case of “4-Fluoro-N-(2-(7-methoxy-3,4-dihydroisoquinolin-1-yl)ethyl)benzamide oxalate [6a-33]”, the “PR (protection rate), Table S1” value in experiment [1] is “-”. Further, the “IR (inhibitory rate) L02” value in the experiment on L02 cells is 45.2%. Also, the “IR (inhibitory rate) HEK293” value in the experiment on HEK293 cells was 43.0%.
For the molecule `COc1ccc2c(c1)C(CCNC(=O)Nc1cccc3ccccc13)=NCC2.O=C(O)C(=O)O` [6b-13, 1-(2-(7-Methoxy-3,4-dihydroisoquinolin-1-yl)ethyl)-3-(naphthalen-1-yl)urea oxalate], the “PR (protection rate), Table S1” value in experiment [1] was “-”. Moreover, the inhibition at 100 µM in the experiment on L02 cells and with HEK293 cells was under 20% each time.
In the case of “2-((2-(7-Methoxy-3,4-dihydroisoquinolin-1-yl)ethyl)carbamoyl)phenylacetate oxalate [6a-20]”, the “PR (protection rate), Table S1” value in experiment [1] is given as “-”. In addition, the “IR (inhibitory rate) L02” value in the experiment with L02 cells came to 54.9%. Further, the “IR (inhibitory rate) HEK293” value with HEK293 cells was 57.1%.
Regarding `COc1ccc2c(c1)C(CCNC(=O)Nc1ccccc1[N+](=O)[O-])=NCC2` [6b-19, 1-(2-(7-Methoxy-3,4-dihydroisoquinolin-1-yl)ethyl)-3-(2-nitrophenyl)ureaoxalate], in experiment [1], the “PR (protection rate), Table S1” value is listed as “-”. Besides, the values for the inhibition at 100 µM with L02 cells and in the experiment with HEK293 cells were 31.5% and 33.5%, respectively.
As to `COc1ccc2c(c1)C(CCNC(=O)c1ccc(C#N)cc1)=NCC2.O=C(O)C(=O)O` [6a-19, 4-Cyano-N-(2-(7-methoxy-3,4-dihydroisoquinolin-1-yl)ethyl)benzamide oxalate], the “PR (protection rate), Table S1” value in experiment [1] was “-”. The figures for the inhibition at 100 µM in the experiment with L02 cells and with HEK293 cells were 45% and 55.9%, respectively.
For `COc1ccc2c(c1)C(CCNC(=O)c1ccccn1)=NCC2.O=C(O)C(=O)O` [6a-24, N-(2-(7-Methoxy-3,4-dihydroisoquinolin-1-yl)ethyl)picolinamide oxalate] the same measures were “-”, 55.8% and 62.9%.

The values are drawn from paper PMC5048153 (Scientific Reports, 2016).
